PubChem BioAssay (NCI)
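1) Cells in 96-well plates. 2) Compound, 48 h, 5 concentrations. 3) Linear interpolation between surrounding doses. 4) Unreached endpoint = highest concentration. TGI: concentration producing complete growth inhibition.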 Where a SMILES comes first, the peptide text is derived from it. [ ]: non-standard residue; d: D form. Phe(4-NO2) = N[CH](Cc1ccc([N+](=O)[O-])cc1)C(=O)O

What was measured:
Test in all cases: NCI tumour cell line growth inhibition, 48 h
NCI-H522 lung = test system: NCI-H522 lung
NCI/ADR-RES ovarian = test system: NCI/ADR-RES ovarian
RPMI-8226 leukemia = test system: RPMI-8226 leukemia
SNB-19 CNS = test system: SNB-19 CNS
PC-3 prostate = test system: PC-3 prostate
MALME-3M melanoma = test system: MALME-3M melanoma
TK-10 renal = test system: TK-10 renal
MDA-MB-435 = test system: MDA-MB-435
HCT-15 colon = test system: HCT-15 colon
IGROV1 ovarian = test system: IGROV1 ovarian
EKVX NSCLC = test system: EKVX NSCLC
SK-MEL-28 melanoma = test system: SK-MEL-28 melanoma
786-0 renal = test system: 786-0 renal
MDA-MB-231 breast = test system: MDA-MB-231 breast
MCF7 breast = test system: MCF7 breast
SK-MEL-2 melanoma = test system: SK-MEL-2 melanoma
HOP-92 NSCLC = test system: HOP-92 NSCLC
UACC-62 melanoma = test system: UACC-62 melanoma
UO-31 renal = test system: UO-31 renal
KM12 colon = test system: KM12 colon

Compound | TGI (NCI-H522 lung) | TGI (NCI/ADR-RES ovarian) | TGI (RPMI-8226 leukemia) | TGI (SNB-19 CNS) | TGI (PC-3 prostate) | TGI (MALME-3M melanoma) | TGI (TK-10 renal) | TGI (MDA-MB-435) | TGI (HCT-15 colon) | TGI (IGROV1 ovarian) | TGI (EKVX NSCLC) | TGI (SK-MEL-28 melanoma) | TGI (786-0 renal) | TGI (MDA-MB-231 breast) | TGI (MCF7 breast) | TGI (SK-MEL-2 melanoma) | TGI (HOP-92 NSCLC) | TGI (UACC-62 melanoma) | TGI (UO-31 renal) | TGI (KM12 colon)
CN(C)CCCNc1ncnc2c1ncn2C1OC(CO)C(O)C1O (stereo not given) | > 100 µM | > 100 µM | > 100 µM | > 100 µM | > 100 µM | > 100 µM | > 100 µM | > 100 µM | > 100 µM | > 100 µM | > 100 µM | > 100 µM | > 100 µM | > 100 µM | > 100 µM | > 100 µM | > 100 µM | > 100 µM | > 100 µM | > 100 µM
O[C@H]1[C@H](O)[C@@H](O)[C@@]2(O)CC[C@@H]1N2 | > 100 µM | > 100 µM | > 52.4 µM | > 100 µM | > 100 µM | > 100 µM | > 100 µM | > 100 µM | > 100 µM | > 100 µM | > 100 µM | > 100 µM | > 100 µM | > 100 µM | > 100 µM | > 100 µM | > 100 µM | > 100 µM | > 100 µM | > 100 µM
Clc1ccc(C(Cc2cccc(Cl)c2)c2c(Cl)nc(N3CCNCC3)nc2Cl)cc1 (stereo not given) | 28 µM | 36.2 µM | 52.2 µM | 30.5 µM | 30.6 µM | 26.4 µM | 30.4 µM | 30.3 µM | 26.4 µM | > 100 µM | > 100 µM | 33.6 µM | 27.5 µM | 26.4 µM | 24.6 µM | 40.9 µM | 27.1 µM | 36.7 µM | 25.8 µM | 26.8 µM
Cc1c2c(OCC(O)CN3CCN(c4ccccc4)CC3)nn(C)c(=O)c2c(C)n1-c1ccccc1 (stereo not given) | 42.2 µM | 63.8 µM | 52.5 µM | > 100 µM | 55.9 µM | 40.7 µM | > 100 µM | 91.8 µM | 43.5 µM | > 100 µM | > 100 µM | 40.2 µM | 42.3 µM | 69.6 µM | 36.5 µM | 33.1 µM | > 100 µM | 32 µM | 43.2 µM | > 100 µM
O=C(SC1=NCCN1)c1cccc2ccccc12 | 74.9 µM | > 100 µM | 94.6 µM | > 100 µM | > 100 µM | > 100 µM | > 100 µM | > 100 µM | > 100 µM | > 100 µM | > 100 µM | > 100 µM | > 100 µM | > 100 µM | > 100 µM | > 100 µM | > 100 µM | > 100 µM | > 100 µM | > 100 µM
CC(NC(=O)C(Cc1ccc([N+](=O)[O-])cc1)NC(=O)C(N)CCCCN)C(=O)NC(Cc1ccc([N+](=O)[O-])cc1)C(N)=O (stereo not given) (H-K[Phe(4-NO2)]A[Phe(4-NO2)]-NH2; configuration not given here) | > 44.4 µM | > 100 µM | > 44.7 µM | > 100 µM | > 100 µM | > 83.7 µM | > 100 µM | > 71.5 µM | > 100 µM | > 100 µM | > 100 µM | > 100 µM | > 100 µM | > 69.9 µM | > 100 µM | > 86.6 µM | 70.5 µM | > 100 µM | > 66.6 µM | > 57.4 µM
NC(=O)c1ncn(C2OC(CO)C(O)C2O)c1NC=O (stereo not given) | > 100 µM | > 100 µM | > 100 µM | > 100 µM | > 100 µM | > 100 µM | > 100 µM | > 100 µM | > 100 µM | > 100 µM | > 100 µM | > 100 µM | > 100 µM | > 100 µM | > 100 µM | > 100 µM | > 100 µM | > 100 µM | > 100 µM | > 100 µM
C/C=C1\CC2C(=O)CCC2C2c3ccccc3OC12 (stereo not given) | > 100 µM | > 100 µM | > 100 µM | > 100 µM | > 100 µM | > 100 µM | > 100 µM | > 100 µM | > 100 µM | > 100 µM | > 100 µM | > 100 µM | > 100 µM | > 100 µM | > 100 µM | > 100 µM | > 100 µM | > 100 µM | > 100 µM | > 100 µM
CC(=NNC(=S)Nc1cccc(C)c1)c1cccc(C(C)=NNC(=S)Nc2cccc(C)c2)n1 | 57.9 µM | 76.6 µM | > 100 µM | > 100 µM | > 100 µM | 49.2 µM | 61.5 µM | > 100 µM | > 100 µM | 46.7 µM | > 100 µM | > 100 µM | 63.6 µM | 59.9 µM | 77.7 µM | 74 µM | 63.2 µM | > 100 µM | 86.3 µM | 59.3 µM
C[C@]12CC[C@H]3[C@@H](CC=C4C[C@@H](O)CC[C@@]43C)[C@@H]1C/C(=C/c1ccccc1)[C@@H]2O | > 100 µM | > 89.1 µM | > 100 µM | > 56.5 µM | > 57.2 µM | 79.4 µM | > 53.3 µM | > 83.4 µM | > 100 µM | 43.9 µM | > 70 µM | > 91.2 µM | > 51.9 µM | > 76.9 µM | > 68.2 µM | 57.9 µM | > 69.6 µM | 56.5 µM | > 62 µM | > 78.8 µM
OC[P+](CO)(CO)C12CC3CC(CC(C3)C1)C2 | > 100 µM | > 100 µM | 59.2 µM | > 100 µM | > 100 µM | > 100 µM | > 100 µM | > 100 µM | > 100 µM | > 100 µM | > 100 µM | > 100 µM | > 26 µM | > 100 µM | > 100 µM | > 100 µM | > 100 µM | > 100 µM | > 100 µM | > 100 µM
